The values below come from PMC12736120, “First-in-Human Phase I Clinical Trial of SLC-391, a Novel and Selective AXL Inhibitor, in Patients with Advanced Solid Tumours” (Pharmaceuticals, 2025).

One test deals with AXL. As to conditions: stated in the Introduction, no reference given; read-out: IC50 against AXL; cited from earlier work.
The test system of test [1] is multiple solid tumour and haematological tumour models. More on the design: method as in PMID 33786587, doi:10.1158/1538-7445.AM2014-2716, doi:10.1158/1538-7445.AM2014-1746, doi:10.1158/1538-7445.AM2015-5393, doi:10.1158/1538-7445.AM2017-4196. As to conditions: alone or in combination with chemotherapy or immune checkpoint blockade; models including lung cancer, colon cancer, CML, AML; cited from earlier work.

For a further test, the system named is advanced solid tumours. The test can be described thus: Preliminary efficacy, disease assessment by RECIST 1.1 / mRECIST. It is filed as in vivo, human. As to conditions: for best percent change in target lesion diameter (decrease): one subject. Here is the method: Disease assessments were performed according to RECIST 1.1 [20, 21] and included imaging and physical examination as appropriate for disease type and location. Disease assessments were completed at screening (within 30 days of C1D1) and every 3 cycles (±7 days) relative to C1D1 until objective disease progression, study drug discontinuation, or withdrawal of informed consent.

With `Nc1ncc(-c2cnn(C3CCNCC3)c2)cc1-c1nnc(CC2CC2)o1` [SLC-391, 3-(5-[cyclopropylmethyl]-1,3,4-oxadiazol-2-yl)-5-(1-[piperidin-4-yl]-1H-pyrazol-4-yl)-pyridin-2-amine], the IC50 with AXL is 9.6 nM. Also, the tumour growth inhibition entry in test [1] was “results in tumour growth inhibition”. Further, the “rate of stable disease” value in the test on advanced solid tumours (150 mg BID (3/6)) worked out at 50.0%. The “best overall response (BOR) of stable disease” value with advanced solid tumours (NSCLC) is recorded as 4/16; in the test on advanced solid tumours (appendix adenocarcinoma) it was 1/1; in the test on advanced solid tumours (head and neck cancer), 1/1; in the test with advanced solid tumours (mammary adenocarcinoma), 1/1; with advanced solid tumours (melanoma), 1/1; in the test with advanced solid tumours (mesothelioma), 4/4. The “subjects with stable disease” value in the test on advanced solid tumours (RECIST 1.1 or modified RECIST (mesothelioma)) is 12 of 35 subjects. Further, the clinical benefit rate in the test on advanced solid tumours (all subjects (N = 35), monotherapy) is on record as 34.3%. Also, the “longest duration of stable disease” value in the test with advanced solid tumours (monotherapy) amounted to 318 days. Moreover, in the test on advanced solid tumours (monotherapy, all stage IV, pretreated), the “patients with stable disease for more than half a year” value was “six”. For the same compound, the “best percent change in target lesion diameter (decrease)” value is on record as 26.7% in the test with advanced solid tumours (50 mg QD, at cycle 7); 22.2% in the test with advanced solid tumours (110 mg BID, on day 275); 8.9% with advanced solid tumours (150 mg BID, at the end of treatment visit); 10.7% in the test on advanced solid tumours (150 mg QD, at cycle 7).
